ChEMBL document CHEMBL5506055, “Hit-to-Lead Optimization of the Natural Product Oridonin as Novel NLRP3 Inflammasome Inhibitors with Potent Anti-Inflammation Activity” (J Med Chem, 2024)
The source made the active and inactive calls. The rule behind the calls is not given here.

Tests used:
hERG (KCNH2) = hERG (KCNH2) (Homo sapiens, UniProt Q12809); experiment: Inhibition of human ERG expressed in CHO cells at 40 uM relative to control; type: toxicity, cell-based; details: CHO cells that express human ERG
Chain of hERG (KCNH2) (Q12809 whole entry): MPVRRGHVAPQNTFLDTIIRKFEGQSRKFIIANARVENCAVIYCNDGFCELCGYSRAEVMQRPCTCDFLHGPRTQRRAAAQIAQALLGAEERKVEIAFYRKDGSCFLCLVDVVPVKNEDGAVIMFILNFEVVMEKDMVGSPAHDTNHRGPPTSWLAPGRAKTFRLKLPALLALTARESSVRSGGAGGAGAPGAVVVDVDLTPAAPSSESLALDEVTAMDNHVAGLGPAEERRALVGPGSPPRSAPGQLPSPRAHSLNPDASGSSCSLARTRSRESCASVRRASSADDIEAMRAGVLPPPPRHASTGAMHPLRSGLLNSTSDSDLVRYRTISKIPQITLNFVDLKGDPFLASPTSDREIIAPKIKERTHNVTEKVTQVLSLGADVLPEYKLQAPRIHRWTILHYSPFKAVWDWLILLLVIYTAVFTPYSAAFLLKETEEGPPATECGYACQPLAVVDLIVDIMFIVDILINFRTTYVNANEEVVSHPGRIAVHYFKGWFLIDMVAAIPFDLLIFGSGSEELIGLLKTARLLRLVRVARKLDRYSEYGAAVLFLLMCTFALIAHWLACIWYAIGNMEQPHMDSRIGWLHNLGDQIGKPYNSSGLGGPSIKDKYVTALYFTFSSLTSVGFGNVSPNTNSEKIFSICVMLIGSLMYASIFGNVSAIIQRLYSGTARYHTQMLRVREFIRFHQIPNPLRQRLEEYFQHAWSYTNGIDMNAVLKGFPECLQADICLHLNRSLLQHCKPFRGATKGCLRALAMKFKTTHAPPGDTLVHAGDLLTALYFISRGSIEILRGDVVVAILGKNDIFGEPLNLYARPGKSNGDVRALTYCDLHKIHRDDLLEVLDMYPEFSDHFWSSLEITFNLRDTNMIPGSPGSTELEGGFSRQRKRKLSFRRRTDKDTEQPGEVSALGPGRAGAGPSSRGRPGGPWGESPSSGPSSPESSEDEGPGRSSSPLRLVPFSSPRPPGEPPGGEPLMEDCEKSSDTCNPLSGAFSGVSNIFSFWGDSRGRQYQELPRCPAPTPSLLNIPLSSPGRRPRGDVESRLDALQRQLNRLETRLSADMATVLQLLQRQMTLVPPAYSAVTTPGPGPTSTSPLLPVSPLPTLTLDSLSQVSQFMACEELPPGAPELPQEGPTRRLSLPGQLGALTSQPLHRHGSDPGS

[1] = Hepatotoxicity in mouse assessed as change in AST/ALT ratio at 100 mg/kg, po or 12.5 to 25 mg/kg, iv; type: toxicity, organism-based; details: in vivo
[2] = biological target: Voltage-gated inwardly rectifying potassium channel KCNH2 (Homo sapiens, UniProt Q12809); experiment: Inhibition of human ERG expressed in CHO cells; type: toxicity, cell-based
Chain of Voltage-gated inwardly rectifying potassium channel KCNH2 (Q12809 whole entry): as above

[3] = Stability in mouse liver microsomes assessed as half life preincubated for 5 mins with NADPH followed by compound addition and measured upto 120 mins by LC-MS/MS analysis; type: ADME, Microsome; details: time < 125 min
[4] = biological target: NACHT, LRR and PYD domains-containing protein 3 (Mus musculus) (UniProt Q8R4B8); experiment: Inhibition of NLRP3 inflammasome activation in LPS/ATP-induced C57BL/6 mouse BMDMs assessed as reduction in TNFalpha level at 1000 nM preincubated for 30 mins followed by LPS addition for 4 hrs and further ATP stimulation for 30 mins by ELISA; type: cell-based; details: BMDM, time 5.0 hrs
Chain of NACHT, LRR and PYD domains-containing protein 3 (Mus musculus) (Q8R4B8 whole entry, the tested form may be a part): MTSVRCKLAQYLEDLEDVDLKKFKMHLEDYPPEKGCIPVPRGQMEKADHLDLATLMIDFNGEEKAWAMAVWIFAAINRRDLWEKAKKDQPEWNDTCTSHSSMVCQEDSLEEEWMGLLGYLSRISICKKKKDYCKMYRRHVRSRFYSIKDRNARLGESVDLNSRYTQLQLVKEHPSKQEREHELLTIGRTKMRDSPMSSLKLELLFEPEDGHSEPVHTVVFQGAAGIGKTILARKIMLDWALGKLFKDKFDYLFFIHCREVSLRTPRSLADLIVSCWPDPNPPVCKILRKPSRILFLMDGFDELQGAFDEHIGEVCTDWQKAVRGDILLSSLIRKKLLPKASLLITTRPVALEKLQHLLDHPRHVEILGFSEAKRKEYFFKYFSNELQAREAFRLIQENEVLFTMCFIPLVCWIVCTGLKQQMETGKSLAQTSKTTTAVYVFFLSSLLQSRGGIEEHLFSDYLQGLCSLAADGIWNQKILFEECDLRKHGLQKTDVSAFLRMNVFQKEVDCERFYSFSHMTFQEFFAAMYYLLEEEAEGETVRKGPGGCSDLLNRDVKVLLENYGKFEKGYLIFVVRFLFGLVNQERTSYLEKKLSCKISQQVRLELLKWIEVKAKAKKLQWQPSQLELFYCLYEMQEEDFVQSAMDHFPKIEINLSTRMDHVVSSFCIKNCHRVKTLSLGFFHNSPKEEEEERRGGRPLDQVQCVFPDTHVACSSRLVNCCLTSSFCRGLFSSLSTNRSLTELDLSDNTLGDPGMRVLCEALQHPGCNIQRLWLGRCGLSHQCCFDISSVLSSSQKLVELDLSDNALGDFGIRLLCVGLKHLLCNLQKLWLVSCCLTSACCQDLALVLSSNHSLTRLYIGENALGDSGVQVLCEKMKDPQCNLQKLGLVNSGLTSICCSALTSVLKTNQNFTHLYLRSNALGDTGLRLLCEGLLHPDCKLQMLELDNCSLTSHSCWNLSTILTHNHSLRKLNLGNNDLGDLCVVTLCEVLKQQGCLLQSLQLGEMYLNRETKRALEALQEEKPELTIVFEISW

[5] = biological target: NACHT, LRR and PYD domains-containing protein 3 (Mus musculus) (UniProt Q8R4B8); experiment: Binding affinity to NLRP3 in mouse BMDMs at 100 uM incubated for 30 mins by CETSA; type: cell-based; details: BMDM
[6] = biological target: NACHT, LRR and PYD domains-containing protein 3 (Mus musculus) (UniProt Q8R4B8); experiment: Inhibition of NLRP3 inflammasome activation in LPS/alum-induced C57BL/6 mouse BMDMs at 200 nM preincubated with LPS for 18 hrs followed by compound addition for 30 mins and further stimulated with alum for 8 hrs by ELISA; type: cell-based; details: BMDM, time 8.5 hrs
[7] = Half-life in ICR mouse at 1 mg/kg, iv measured upto 24 hrs by LC-MS/MS method; type: ADME, organism-based; details: in vivo
BMDM = experiment: Inhibition of mitochondrial ROS production in mouse BMDMs at 200 nM preincubated with LPS for 4 hrs followed by compound addition for 30 mins and further stimulated with ATP for 30 mins by confocal microscopic analysis; type: functional, cell-based; details: time 1.0 hrs
[8] = biological target: NACHT, LRR and PYD domains-containing protein 3 (Mus musculus) (UniProt Q8R4B8); experiment: Inhibition of NLRP3 inflammasome activation in LPS/MSU-induced C57BL/6 mouse BMDMs at 200 nM preincubated with LPS for 4 hrs followed by compound addition for 30 mins and further stimulated with MSU for 6 hrs by ELISA; type: cell-based; details: BMDM, time 6.5 hrs
[9] = biological target: NACHT, LRR and PYD domains-containing protein 3 (Mus musculus) (UniProt Q8R4B8); experiment: Inhibition of NLRP3 inflammasome activation in LPS-induced C57BL/6 mouse BMDMs assessed as reduction in pro-IL-1beta mRNA level at 50 to 200 nM preincubated for 24 hrs followed by LPS addition for 4 hrs by qRT-PCR analysis; type: cell-based; details: BMDM, dose 50-200 nM, time 28.0 hrs
[10] = biological target: NACHT, LRR and PYD domains-containing protein 3 (Mus musculus) (UniProt Q8R4B8); experiment: Inhibition of NLRP3 inflammasome activation in LPS-induced C57BL/6 mouse BMDMs assessed as effect on p65 expression at 50 to 200 nM preincubated for 24 hrs followed by LPS addition for 4 hrs by Western blotting analysis; type: cell-based; details: BMDM, dose 50-200 nM, time 28.0 hrs
Mus musculus [11] = experiment: Antiinflammatory activity in MSU-induced C57BL/6 mouse model of arthritis at 100 mg/kg, po measured upto 24 hrs; type: functional, organism-based
[12] = biological target: NACHT, LRR and PYD domains-containing protein 3 (Mus musculus) (UniProt Q8R4B8); experiment: Inhibition of NLRP3 inflammasome activation in LPS/ATP-induced C57BL/6 mouse BMDMs assessed as reduction in IL-1beta secretion at 50 to 200 nM preincubated with LPS for 4 hrs followed by compound addition for 30 mins and further stimulated with ATP for 30 mins by Western blotting analysis relative to oridonin; type: cell-based; details: BMDM, dose 50-200 nM, time 1.0 hrs
[13] = biological target: NACHT, LRR and PYD domains-containing protein 3 (Mus musculus) (UniProt Q8R4B8); experiment: Inhibition of NLRP3 inflammasome activation in LPS/ATP-induced C57BL/6 mouse BMDMs assessed as reduction in maturation of pro-caspase-1 preincubated with LPS for 4 hrs followed by compound addition for 30 mins and further stimulated with ATP for 30 mins by ELISA; type: cell-based; details: BMDM, time 1.0 hrs
[14] = Stability in human liver microsomes assessed as half life preincubated for 5 mins with NADPH followed by compound addition and measured upto 120 mins by LC-MS/MS analysis; type: ADME, Microsome; details: time < 125 min
Mus musculus [15] = experiment: Antiinflammatory activity in C57BL/6 mouse model of arthritis assessed as reduction in MSU-induced TNFalpha secretion at 12.5 to 25 mg/kg, iv measured upto 24 hrs; type: functional, organism-based; details: dose 12.5-25 mg/kg
[16] = Stability in rat liver microsomes assessed as half life preincubated for 5 mins with NADPH followed by compound addition and measured upto 120 mins by LC-MS/MS analysis; type: ADME, Microsome; details: time < 125 min
[17] = biological target: Nlrp3/Pycard (Mus musculus) (UniProt Q8R4B8+Q9EPB4); experiment: Inhibition of NLRP3/ASC protein-protein interaction in LPS/ATP-induced C57BL/6 mouse BMDMs at 200 nM preincubated with LPS for 4 hrs followed by compound addition for 30 mins and further stimulated with ATP for 30 mins by Western blotting analysis; type: cell-based; details: BMDM, time 1.0 hrs
Chain of Nlrp3/Pycard (Mus musculus) (Q8R4B8 whole entry, looked up, the tested form may be a part): as the sequence (Q8R4B8 whole entry, the tested form may be a part) above
Chain of Nlrp3/Pycard (Mus musculus) (Q9EPB4 whole entry, looked up, the tested form may be a part): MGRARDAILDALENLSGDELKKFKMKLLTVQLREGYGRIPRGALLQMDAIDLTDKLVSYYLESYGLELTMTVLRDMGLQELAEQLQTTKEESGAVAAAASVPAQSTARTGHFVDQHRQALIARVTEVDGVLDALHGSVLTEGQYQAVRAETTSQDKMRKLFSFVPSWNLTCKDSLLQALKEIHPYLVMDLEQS

[18] = biological target: NACHT, LRR and PYD domains-containing protein 3 (Mus musculus) (UniProt Q8R4B8); experiment: Inhibition of NLRP3 inflammasome activation in LPS-induced C57BL/6 mouse BMDMs assessed as reduction in IL-1beta level preincubated with Pam3CSK4 for 3 hrs followed by compound addition for 30 mins and further LPS transfected with Lipo-3000 for 16 hrs by ELISA; type: cell-based; details: BMDM, dose 50-200 nM, time 16.5 hrs
[19] = biological target: NLR family CARD domain-containing protein 4 (Mus musculus) (UniProt Q3UP24); experiment: Inhibition of NLRC4 inflammasome activation in LPS/Poly(dA:dT)-induced C57BL/6 mouse BMDMs at 200 nM […] for 4 hrs followed by compound addition for 30 mins and further Poly(dA:dT) transfected with Lipo-3000 for 4 hrs; type: cell-based; details: BMDM, time 4.5 hrs
Chain of NLR family CARD domain-containing protein 4 (Mus musculus) (Q3UP24 whole entry, the tested form may be a part): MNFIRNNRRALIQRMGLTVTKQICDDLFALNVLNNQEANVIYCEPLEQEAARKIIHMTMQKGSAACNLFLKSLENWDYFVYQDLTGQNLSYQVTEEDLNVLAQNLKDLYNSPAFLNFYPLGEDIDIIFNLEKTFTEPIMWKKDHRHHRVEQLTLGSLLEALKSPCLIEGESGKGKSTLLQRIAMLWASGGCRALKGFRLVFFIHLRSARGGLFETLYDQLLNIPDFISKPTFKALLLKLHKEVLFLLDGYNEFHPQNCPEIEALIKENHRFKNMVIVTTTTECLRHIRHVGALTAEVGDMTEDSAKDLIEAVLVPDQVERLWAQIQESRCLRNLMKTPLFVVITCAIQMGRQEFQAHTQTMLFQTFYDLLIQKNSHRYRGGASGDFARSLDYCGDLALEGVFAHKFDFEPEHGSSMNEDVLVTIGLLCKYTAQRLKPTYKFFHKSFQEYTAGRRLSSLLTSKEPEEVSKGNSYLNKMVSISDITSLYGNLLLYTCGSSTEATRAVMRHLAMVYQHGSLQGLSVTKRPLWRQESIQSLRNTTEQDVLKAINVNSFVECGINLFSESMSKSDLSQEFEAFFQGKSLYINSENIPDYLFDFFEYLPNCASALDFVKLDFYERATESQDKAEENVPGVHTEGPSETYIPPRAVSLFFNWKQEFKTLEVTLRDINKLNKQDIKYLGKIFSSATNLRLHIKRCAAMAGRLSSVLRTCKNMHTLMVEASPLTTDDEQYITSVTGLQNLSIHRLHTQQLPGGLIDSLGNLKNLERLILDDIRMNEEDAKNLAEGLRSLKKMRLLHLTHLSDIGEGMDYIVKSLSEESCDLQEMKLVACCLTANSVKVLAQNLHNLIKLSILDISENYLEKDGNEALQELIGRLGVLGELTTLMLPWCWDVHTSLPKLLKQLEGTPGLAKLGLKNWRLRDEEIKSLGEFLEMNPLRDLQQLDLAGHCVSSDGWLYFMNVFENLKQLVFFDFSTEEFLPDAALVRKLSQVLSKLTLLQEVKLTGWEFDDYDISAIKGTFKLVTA

[20] = biological target: NLRP3-NEK7 (Mus musculus) (UniProt Q8R4B8+Q9ES74); experiment: Inhibition of NLRP3/NEK7 protein-protein interaction in LPS/ATP-induced C57BL/6 mouse BMDMs at 200 nM preincubated with LPS for 4 hrs followed by compound addition for 30 mins and further stimulated with ATP for 30 mins by Western blotting analysis; type: cell-based; details: BMDM, time 1.0 hrs
Chain of NLRP3-NEK7 (Mus musculus) (Q8R4B8 whole entry, looked up): as the sequence (Q8R4B8 whole entry, the tested form may be a part) above
Chain of NLRP3-NEK7 (Mus musculus) (Q9ES74 whole entry, looked up): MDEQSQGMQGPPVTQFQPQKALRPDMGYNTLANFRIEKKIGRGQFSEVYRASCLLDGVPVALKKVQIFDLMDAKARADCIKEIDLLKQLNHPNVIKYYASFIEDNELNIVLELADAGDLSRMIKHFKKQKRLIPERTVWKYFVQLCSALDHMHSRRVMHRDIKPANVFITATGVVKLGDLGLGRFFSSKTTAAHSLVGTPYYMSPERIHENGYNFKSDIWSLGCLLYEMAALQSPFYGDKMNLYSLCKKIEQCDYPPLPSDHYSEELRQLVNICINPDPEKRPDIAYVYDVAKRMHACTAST

Mus musculus [21] = experiment: Antiinflammatory activity in MSU-induced C57BL/6 mouse model of arthritis assessed as reduction in inflammatory cell infiltration at 100 mg/kg, po measured after 24 hrs; type: functional, organism-based
[22] = Stability in human plasma assessed as half life measured upto 8 hrs; type: ADME, cell-free
[23] = biological target: NACHT, LRR and PYD domains-containing protein 3 (Mus musculus) (UniProt Q8R4B8); experiment: (§1) Inhibition of NLRP3 inflammasome activation in LPS/ATP-induced C57BL/6 mouse BMDMs assessed as inhibition of ASC oligomerization by measuring reduction in NLRP3 expression at 50 to 200 nM preincubated with LPS for 4 hrs followed by compound addition for 30 mins and further stimulated with ATP for 30 mins by Western blotting analysis; type: cell-based; details: BMDM, dose 50-200 nM, time 1.0 hrs
[24] = biological target: NACHT, LRR and PYD domains-containing protein 3 (Mus musculus) (UniProt Q8R4B8); experiment: as §1, with “in pro-IL-1beta” for “in NLRP3”; type: cell-based; details: BMDM, dose 50-200 nM, time 1.0 hrs
[25] = AUC in ICR mouse at 1 mg/kg, iv measured upto 24 hrs by LC-MS/MS method; type: ADME, organism-based; details: in vivo, iv, 1 mg/kg, 24 h
Mus musculus [26] = experiment: Antiinflammatory activity in C57BL/6 mouse model of arthritis assessed as reduction in MSU-induced IL-1beta secretion at 12.5 to 25 mg/kg, iv measured upto 24 hrs; type: functional, organism-based; details: dose 12.5-25 mg/kg
[27] = biological target: NACHT, LRR and PYD domains-containing protein 3 (Mus musculus) (UniProt Q8R4B8); experiment: Inhibition of NLRP3 inflammasome activation in LPS/ATP-induced C57BL/6 mouse BMDMs assessed as reduction in IL-1beta secretion at 200 nM preincubated with LPS for 4 hrs followed by compound addition for 30 mins and further stimulated with ATP for 30 mins by ELISA relative to control; type: cell-based; details: BMDM, time 1.0 hrs

half-life [3]: 3.07 h
inhibition [4]: Active
Activity [5]: Active
inhibition [6]: Active
half-life [7]: 1.98 h
inhibition [8]: Active
inhibition [9]: inactive
inhibition [10]: inactive
inhibition [12]: Active
inhibition [13]: Dose-Dependent Effect
half-life [14]: 3.03 h
half-life [16]: 3.19 h
inhibition [17]: Active
inhibition [18]: Dose-Dependent Effect
inhibition [19]: Active
inhibition [20]: Active
half-life [22]: 6.92 h
inhibition [23]: inactive
inhibition [24]: inactive
AUC [25]: 242 ng·h/mL
inhibition [27]: 87.5%
Structure (SMILES): C=C1C(=O)[C@]23[C@H](O)[C@H]1CC[C@H]2[C@]12C=CCC(C)(C)[C@H]1[C@H](O)[C@@]3(OCCC(=O)O)OC2
inhibition at 40 µM (hERG (KCNH2)): 22%
Activity [1]: Non-Toxic
IC50 [2]: > 40 µM
inhibition (BMDM): inactive
Activity (Mus musculus [11]): Active
Activity (Mus musculus [15]): Active
Activity (Mus musculus [21]): Active
Activity (Mus musculus [26]): Active
